Test results taken from ChEMBL document CHEMBL1201862, “PubChem BioAssay data set” (2004).
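A five-concentration, 48-hour dose response in 96-well plates underlies each endpoint, interpolated linearly between surrounding concentrations. Abbreviation: GI50, concentration required for 50% inhibition of growth.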 The source made the active and inactive calls. Rule as the data show it: active = GI50 up to about 1.1 µM and inactive = higher.

Legend:
Experiment in all cases: inhibition of tumour cell growth, NCI panel, 48 h
ACHN = test system: ACHN
SF-539 = test system: SF-539
HCC 2998 = test system: HCC 2998
IGROV-1 = test system: IGROV-1
PC-3 = test system: PC-3
BT-549 = test system: BT-549
SNB-19 = test system: SNB-19
NCI-H23 = test system: NCI-H23
MDA-MB-435 = test system: MDA-MB-435
K562 = test system: K562
MOLT-4 = test system: MOLT-4
LOX IMVI = test system: LOX IMVI
M14 = test system: M14
SK-MEL-5 = test system: SK-MEL-5
NCI-H522 = test system: NCI-H522
MCF7 = test system: MCF7
A498 = test system: A498
OVCAR-5 = test system: OVCAR-5
HCT-15 = test system: HCT-15
OVCAR-3 = test system: OVCAR-3
SK-MEL-28 = test system: SK-MEL-28
UACC-62 = test system: UACC-62
TK-10 = test system: TK-10
Malme-3M = test system: Malme-3M
COLO 205 = test system: COLO 205
MDA-N = test system: MDA-N
NCI/ADR-RES = test system: NCI/ADR-RES
HT-29 = test system: HT-29
CAKI-1 = test system: CAKI-1
RPMI-8226 = test system: RPMI-8226
SF-268 = test system: SF-268
A549 = test system: A549
KM12 = test system: KM12
SK-MEL-2 = test system: SK-MEL-2
UACC-257 = test system: UACC-257
HOP-92 = test system: HOP-92
SR = test system: SR
SN12C = test system: SN12C
CCRF-CEM = test system: CCRF-CEM
DU-145 = test system: DU-145
U-251 = test system: U-251
NCI-H460 = test system: NCI-H460
MDA-MB-231 = test system: MDA-MB-231
EKVX = test system: EKVX
HOP-62 = test system: HOP-62
OVCAR-8 = test system: OVCAR-8
SW-620 = test system: SW-620
OVCAR-4 = test system: OVCAR-4
UO-31 = test system: UO-31
SF-295 = test system: SF-295
HCT-116 = test system: HCT-116
SNB-75 = test system: SNB-75
786-0 = test system: 786-0
T47D = test system: T47D
RXF 393 = test system: RXF 393
SK-OV-3 = test system: SK-OV-3
NCI-H226 = test system: NCI-H226

Compound: O[C@@]12Cc3c([nH]c4ccccc34)[C@@H]3Oc4cccc5c4[C@@]31CCN(CC1CC1)[C@@H]2C5
- GI50 (ACHN): 20.4 µM (inactive)
- GI50 (SF-539): 20.9 µM (inactive)
- GI50 (HCC 2998): 17.7 µM (inactive)
- GI50 (IGROV-1): 24.9 µM (inactive)
- GI50 (PC-3): 17 µM (inactive)
- GI50 (BT-549): 19.8 µM (inactive)
- GI50 (SNB-19): 33 µM (inactive)
- GI50 (NCI-H23): 30.7 µM (inactive)
- GI50 (MDA-MB-435): 15.7 µM (inactive)
- GI50 (K562): 22.6 µM (inactive)
- GI50 (MOLT-4): 19.6 µM (inactive)
- GI50 (LOX IMVI): 18.9 µM (inactive)
- GI50 (M14): 23.7 µM (inactive)
- GI50 (SK-MEL-5): 24.3 µM (inactive)
- GI50 (NCI-H522): 22.8 µM (inactive)
- GI50 (MCF7): 17.5 µM (inactive)
- GI50 (A498): 25.2 µM (inactive)
- GI50 (OVCAR-5): 29 µM (inactive)
- GI50 (HCT-15): 18.1 µM
- GI50 (OVCAR-3): 22.3 µM (inactive)
- GI50 (SK-MEL-28): 12.7 µM (inactive)
- GI50 (UACC-62): 17.2 µM (inactive)
- GI50 (TK-10): 19.2 µM (inactive)
- GI50 (Malme-3M): 19.5 µM (inactive)
- GI50 (COLO 205): 31.4 µM (inactive)
- GI50 (MDA-N): 19.6 µM (inactive)
- GI50 (NCI/ADR-RES): 33.4 µM (inactive)
- GI50 (HT-29): 15.9 µM (inactive)
- GI50 (CAKI-1): 19.2 µM (inactive)
- GI50 (RPMI-8226): 19.4 µM (inactive)
- GI50 (SF-268): 19.5 µM (inactive)
- GI50 (A549): 27 µM (inactive)
- GI50 (KM12): 39.7 µM (inactive)
- GI50 (SK-MEL-2): 26.5 µM (inactive)
- GI50 (UACC-257): 24.9 µM (inactive)
- GI50 (HOP-92): 12.4 µM (inactive)
- GI50 (SR): 34 µM (inactive)
- GI50 (SN12C): 21.7 µM (inactive)
- GI50 (CCRF-CEM): 11.3 µM (inactive)
- GI50 (DU-145): 27 µM (inactive)
- GI50 (U-251): 39.7 µM (inactive)
- GI50 (NCI-H460): 46.1 µM (inactive)
- GI50 (MDA-MB-231): 25.7 µM (inactive)
- GI50 (EKVX): 24.5 µM (inactive)
- GI50 (HOP-62): 31.8 µM (inactive)
- GI50 (OVCAR-8): 15.1 µM (inactive)
- GI50 (SW-620): 11.4 µM (inactive)
- GI50 (OVCAR-4): 22.5 µM (inactive)
- GI50 (UO-31): 18.9 µM (inactive)

Compound: CC(C)Sc1nc(C#N)cc2c1CCCC2
- GI50 (ACHN): 40.6 µM (inactive)
- GI50 (SF-539): 42.5 µM (inactive)
- GI50 (HCC 2998): 74.8 µM (inactive)
- GI50 (IGROV-1): 96.2 µM (inactive)
- GI50 (SF-295): 40.9 µM (inactive)
- GI50 (PC-3): 38.2 µM (inactive)
- GI50 (BT-549): 99.1 µM (inactive)
- GI50 (SNB-19): > 100 µM (inactive)
- GI50 (NCI-H23): 58.9 µM (inactive)
- GI50 (MDA-MB-435): 47 µM (inactive)
- GI50 (HCT-116): 44.7 µM (inactive)
- GI50 (K562): 48.9 µM (inactive)
- GI50 (MOLT-4): 19.5 µM (inactive)
- GI50 (LOX IMVI): 25.4 µM (inactive)
- GI50 (M14): 48.6 µM (inactive)
- GI50 (SK-MEL-5): 15.8 µM (inactive)
- GI50 (NCI-H522): 21.1 µM (inactive)
- GI50 (MCF7): 39.4 µM (inactive)
- GI50 (SNB-75): > 100 µM (inactive)
- GI50 (A498): 37.1 µM (inactive)
- GI50 (OVCAR-5): > 100 µM (inactive)
- GI50 (HCT-15): 37.6 µM
- GI50 (OVCAR-3): 30.3 µM (inactive)
- GI50 (SK-MEL-28): 29.7 µM (inactive)
- GI50 (UACC-62): 91.8 µM (inactive)
- GI50 (TK-10): > 100 µM (inactive)
- GI50 (786-0): 54 µM (inactive)
- GI50 (Malme-3M): 36.1 µM (inactive)
- GI50 (COLO 205): 20.1 µM (inactive)
- GI50 (MDA-N): 37.7 µM (inactive)
- GI50 (T47D): 56.9 µM (inactive)
- GI50 (NCI/ADR-RES): 39.2 µM (inactive)
- GI50 (HT-29): > 100 µM (inactive)
- GI50 (CAKI-1): > 100 µM (inactive)
- GI50 (RPMI-8226): 26.4 µM (inactive)
- GI50 (SF-268): 50.7 µM (inactive)
- GI50 (A549): 37.1 µM (inactive)
- GI50 (KM12): 28.6 µM (inactive)
- GI50 (SK-MEL-2): 23.2 µM (inactive)
- GI50 (RXF 393): 27.7 µM (inactive)
- GI50 (UACC-257): 39.9 µM (inactive)
- GI50 (HOP-92): 33.5 µM (inactive)
- GI50 (SK-OV-3): 72.9 µM (inactive)
- GI50 (SR): 20.7 µM (inactive)
- GI50 (SN12C): 51.3 µM (inactive)
- GI50 (CCRF-CEM): 24.8 µM (inactive)
- GI50 (NCI-H226): 40.6 µM (inactive)
- GI50 (DU-145): > 100 µM (inactive)
- GI50 (U-251): 46.5 µM (inactive)
- GI50 (NCI-H460): 48.9 µM (inactive)
- GI50 (MDA-MB-231): 57.1 µM (inactive)
- GI50 (EKVX): 49.4 µM (inactive)
- GI50 (HOP-62): 85.7 µM (inactive)
- GI50 (OVCAR-8): 63.5 µM (inactive)
- GI50 (SW-620): 37.8 µM (inactive)
- GI50 (OVCAR-4): 53.1 µM (inactive)
- GI50 (UO-31): 47.6 µM (inactive)

Compound: Nn1c(CCCCCCCCc2nnc(COc3c(O)ccc4ccccc34)n2N)nnc1COc1c(O)ccc2ccccc12
- GI50 (ACHN): > 100 µM (inactive)
- GI50 (HCC 2998): > 100 µM (inactive)
- GI50 (IGROV-1): > 100 µM (inactive)
- GI50 (SF-295): > 100 µM (inactive)
- GI50 (PC-3): > 100 µM (inactive)
- GI50 (BT-549): > 100 µM (inactive)
- GI50 (SNB-19): > 100 µM (inactive)
- GI50 (NCI-H23): > 100 µM (inactive)
- GI50 (MDA-MB-435): > 100 µM (inactive)
- GI50 (HCT-116): 49.5 µM (inactive)
- GI50 (K562): > 100 µM (inactive)
- GI50 (MOLT-4): > 100 µM (inactive)
- GI50 (M14): > 100 µM (inactive)
- GI50 (SK-MEL-5): > 100 µM (inactive)
- GI50 (NCI-H522): > 100 µM (inactive)
- GI50 (MCF7): > 100 µM (inactive)
- GI50 (SNB-75): > 100 µM (inactive)
- GI50 (A498): > 100 µM (inactive)
- GI50 (OVCAR-5): > 100 µM (inactive)
- GI50 (HCT-15): > 100 µM
- GI50 (SK-MEL-28): > 100 µM (inactive)
- GI50 (UACC-62): > 100 µM (inactive)
- GI50 (TK-10): > 100 µM (inactive)
- GI50 (786-0): 99.3 µM (inactive)
- GI50 (Malme-3M): > 100 µM (inactive)
- GI50 (COLO 205): > 100 µM (inactive)
- GI50 (MDA-N): > 100 µM (inactive)
- GI50 (NCI/ADR-RES): > 100 µM (inactive)
- GI50 (HT-29): > 100 µM (inactive)
- GI50 (CAKI-1): 27.2 µM (inactive)
- GI50 (RPMI-8226): 63.1 µM (inactive)
- GI50 (SF-268): > 100 µM (inactive)
- GI50 (A549): > 100 µM (inactive)
- GI50 (KM12): > 100 µM (inactive)
- GI50 (SK-MEL-2): > 100 µM (inactive)
- GI50 (RXF 393): 84.3 µM (inactive)
- GI50 (UACC-257): > 100 µM (inactive)
- GI50 (HOP-92): > 100 µM (inactive)
- GI50 (SK-OV-3): > 100 µM (inactive)
- GI50 (SN12C): > 100 µM (inactive)
- GI50 (NCI-H226): > 100 µM (inactive)
- GI50 (DU-145): > 100 µM (inactive)
- GI50 (U-251): > 100 µM (inactive)
- GI50 (NCI-H460): 57.9 µM (inactive)
- GI50 (MDA-MB-231): > 100 µM (inactive)
- GI50 (EKVX): > 100 µM (inactive)
- GI50 (SW-620): > 100 µM (inactive)
- GI50 (OVCAR-4): 59.6 µM (inactive)
- GI50 (UO-31): > 100 µM (inactive)
